Source: ChEMBL document CHEMBL4359843, “Linear and Rationally Designed Stapled Peptides Abrogate TLR4 Pathway and Relieve Inflammatory Symptoms in Rheumatoid Arthritis Rat Model” (J Med Chem, 2019)
Active and inactive are the calls of the source. The calls are words filed in the database; no cut-off is given here. Where a SMILES comes first, the peptide text is derived from it. Bridges are numbered along the chain shown (N, C = ends).

Tests used:
Toll-like receptor 4 [1] = molecular target: T1, Toll-like receptor 4 (Homo sapiens, UniProt O00206); assay: Antagonist activity at TLR4 in human THP1 cells assessed as reduction in LPS-induced p38 phosphorylation at 50 uM after 15 to 30 mins by Western blot analysis; type: cell-based
T1 sequence (O00206 whole entry): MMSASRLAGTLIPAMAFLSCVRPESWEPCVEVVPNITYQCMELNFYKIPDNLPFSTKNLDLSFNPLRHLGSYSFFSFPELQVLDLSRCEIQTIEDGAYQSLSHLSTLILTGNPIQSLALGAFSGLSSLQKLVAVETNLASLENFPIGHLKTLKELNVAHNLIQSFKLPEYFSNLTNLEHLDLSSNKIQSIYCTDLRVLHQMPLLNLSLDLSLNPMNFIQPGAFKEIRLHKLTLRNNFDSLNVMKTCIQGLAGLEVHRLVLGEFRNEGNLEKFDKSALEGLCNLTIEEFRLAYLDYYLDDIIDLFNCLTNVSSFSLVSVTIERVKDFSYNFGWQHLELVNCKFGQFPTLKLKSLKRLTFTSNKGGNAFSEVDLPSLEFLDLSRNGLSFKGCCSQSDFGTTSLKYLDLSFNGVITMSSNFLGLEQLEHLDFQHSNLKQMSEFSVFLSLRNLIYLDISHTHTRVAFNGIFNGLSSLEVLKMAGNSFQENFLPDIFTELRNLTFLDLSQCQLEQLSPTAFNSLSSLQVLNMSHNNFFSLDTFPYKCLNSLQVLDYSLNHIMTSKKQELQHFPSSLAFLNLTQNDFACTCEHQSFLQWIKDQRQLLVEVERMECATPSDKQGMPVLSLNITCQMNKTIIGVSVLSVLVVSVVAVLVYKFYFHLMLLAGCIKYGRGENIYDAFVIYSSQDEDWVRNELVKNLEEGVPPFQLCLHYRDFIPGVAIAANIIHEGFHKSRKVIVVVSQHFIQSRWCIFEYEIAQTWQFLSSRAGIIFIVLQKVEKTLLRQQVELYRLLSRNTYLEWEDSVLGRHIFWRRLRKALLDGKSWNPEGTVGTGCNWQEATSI

Toll-like receptor 4 [2] = molecular target: T1, Toll-like receptor 4; assay: Antagonist activity at TLR4 in human THP1 cells assessed as reduction in LPS-induced JNK phosphorylation at 50 uM after 15 to 30 mins by Western blot analysis; type: cell-based
Toll-like receptor 4 [3] = molecular target: T1, Toll-like receptor 4; assay: Antagonist activity at TLR4 in human THP1 cells assessed as reduction in LPS-induced IL6 secretion at 50 uM after 24 hrs by ELISA; type: cell-based
Rattus norvegicus = assay: Antiarthritic activity in Lewis rat model of complete Freund's adjuvant-induced arthritis assessed as reduction in ankle swelling and edema at 1 nmol/g administered intra-articularly into knee joint after 2 weeks by visual analysis; type: functional, organism-based
[4] = molecular target: T2, Toll-like receptor 4 (Mus musculus) (UniProt Q9QUK6); assay: Antagonist activity at TLR4 in mouse RAW264.7 cells assessed as reduction in LPS-induced COX2 expression at 80 uM by Western blot analysis; type: cell-based
T2 sequence (whole entry): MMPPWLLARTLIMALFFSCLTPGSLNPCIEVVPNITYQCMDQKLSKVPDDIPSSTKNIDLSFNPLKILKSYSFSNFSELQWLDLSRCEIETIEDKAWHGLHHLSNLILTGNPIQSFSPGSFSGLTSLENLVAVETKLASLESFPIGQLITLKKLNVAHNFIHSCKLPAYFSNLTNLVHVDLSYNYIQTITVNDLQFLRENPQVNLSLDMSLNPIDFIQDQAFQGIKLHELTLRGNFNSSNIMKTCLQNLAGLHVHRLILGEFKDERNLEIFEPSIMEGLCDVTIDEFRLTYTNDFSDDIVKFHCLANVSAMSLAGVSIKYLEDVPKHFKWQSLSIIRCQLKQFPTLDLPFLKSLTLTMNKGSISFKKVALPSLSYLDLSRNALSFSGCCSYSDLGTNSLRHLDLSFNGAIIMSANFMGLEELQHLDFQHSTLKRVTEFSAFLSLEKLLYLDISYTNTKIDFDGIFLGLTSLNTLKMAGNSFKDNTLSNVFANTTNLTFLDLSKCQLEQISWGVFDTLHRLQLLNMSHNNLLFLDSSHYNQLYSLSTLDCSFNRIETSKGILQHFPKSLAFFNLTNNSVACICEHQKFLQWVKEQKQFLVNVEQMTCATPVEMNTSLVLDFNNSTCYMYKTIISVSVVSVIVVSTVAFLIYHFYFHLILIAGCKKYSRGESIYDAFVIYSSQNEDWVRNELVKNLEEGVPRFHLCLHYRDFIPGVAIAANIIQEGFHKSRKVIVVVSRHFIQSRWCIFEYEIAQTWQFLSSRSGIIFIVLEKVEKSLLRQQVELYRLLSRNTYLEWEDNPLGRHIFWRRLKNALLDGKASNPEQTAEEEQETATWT

[5] = molecular target: Toll-like receptor 2 (Homo sapiens) (UniProt O60603); assay: Non-specific binding affinity to human TLR2 up to 200 uM by surface plasmon resonance analysis
Toll-like receptor 2 (Homo sapiens), sequence (O60603 whole entry): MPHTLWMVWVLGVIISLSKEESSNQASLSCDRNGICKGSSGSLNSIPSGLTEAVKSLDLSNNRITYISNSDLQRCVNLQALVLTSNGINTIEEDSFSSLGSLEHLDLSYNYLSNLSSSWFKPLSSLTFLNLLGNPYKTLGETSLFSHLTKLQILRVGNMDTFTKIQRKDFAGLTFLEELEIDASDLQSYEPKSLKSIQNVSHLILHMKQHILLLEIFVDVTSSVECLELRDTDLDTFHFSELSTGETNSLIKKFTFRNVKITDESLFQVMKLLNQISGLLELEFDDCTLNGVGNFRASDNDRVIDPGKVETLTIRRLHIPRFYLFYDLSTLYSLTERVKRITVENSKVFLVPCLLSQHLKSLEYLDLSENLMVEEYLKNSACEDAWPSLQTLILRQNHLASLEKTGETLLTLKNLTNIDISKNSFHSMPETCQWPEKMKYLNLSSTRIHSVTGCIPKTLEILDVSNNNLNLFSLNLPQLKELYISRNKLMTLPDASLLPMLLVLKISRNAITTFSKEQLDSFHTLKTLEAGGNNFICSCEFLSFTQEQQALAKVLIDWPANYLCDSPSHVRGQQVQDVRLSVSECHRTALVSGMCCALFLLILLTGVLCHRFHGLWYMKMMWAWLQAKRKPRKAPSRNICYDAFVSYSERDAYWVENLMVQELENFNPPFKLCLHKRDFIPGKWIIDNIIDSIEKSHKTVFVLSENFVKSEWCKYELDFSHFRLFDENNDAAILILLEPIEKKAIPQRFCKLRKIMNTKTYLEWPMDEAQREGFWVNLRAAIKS

[6] = molecular target: T2, Toll-like receptor 4 (Mus musculus); assay: Antagonist activity at TLR4 in mouse BMDM cells assessed as reduction in LPS-induced TNFalpha secretion at 20 to 80 uM after 24 hrs by ELISA; type: cell-based
[7] = molecular target: T2, Toll-like receptor 4 (Mus musculus); assay: Antagonist activity at TLR4 in mouse BMDM cells assessed as reduction in LPS-induced IFNbeta secretion at 20 to 80 uM after 24 hrs by ELISA; type: cell-based
Toll-like receptor 4 [8] = molecular target: T1, Toll-like receptor 4; assay: Antagonist activity at TLR4 in human PBMC cells assessed as reduction in LPS-induced ERK phosphorylation at 80 uM after 15 to 30 mins by Western blot analysis; type: cell-based
Mus musculus [9] = assay: Antiinflammatory activity in C57BL/6J mouse assessed as reduction in LPS-induced IL-12p40 secretion at 70 nmol/g, ip pretreated for 1 hr followed by LPS challenge and measured after 2 hrs by ELISA; type: functional, organism-based
Mus musculus [10] = assay: Antiinflammatory activity in C57BL/6J mouse assessed as reduction in LPS-induced IL6 secretion at 70 nmol/g, ip pretreated for 1 hr followed by LPS challenge and measured after 2 hrs by ELISA; type: functional, organism-based
[11] = molecular target: T2, Toll-like receptor 4 (Mus musculus); assay: Antagonist activity at TLR4 in mouse RAW264.7 cells assessed as reduction in LPS-induced iNOS expression at 80 uM by Western blot analysis; type: cell-based
Toll-like receptor 4 [12] = molecular target: T1, Toll-like receptor 4; assay: Antagonist activity at TLR4 in human PBMC cells assessed as reduction in LPS-induced IL6 secretion at 20 to 80 uM after 24 hrs by ELISA; type: cell-based

Activity (Toll-like receptor 4 [1])	Activity (Toll-like receptor 4 [2])	Activity (Toll-like receptor 4 [3])	Activity [4]	Activity [5]	Activity [6]	Activity [7]	Activity (Toll-like receptor 4 [8])	Activity [11]	Activity (Toll-like receptor 4 [12])	Compound	Activity (Rattus norvegicus)	Activity (Mus musculus [9])	Activity (Mus musculus [10])
Active	Active	Active								CC[C@H](C)[C@@H]1NC(=O)[C@H](Cc2c[nH]c3ccccc23)NC(=O)[C@H](Cc2c[nH]c3ccccc23)NC(=O)[C@@H](NC(=O)[C@H](CO)NC(=O)[C@H](Cc2ccccc2)NC(=O)[C@@H](NC(=O)CNC(=O)[C@@H](N)CC(C)C)C(C)C)CC(=O)NCCCC[C@@H](C(=O)N[C@@H](CC(C)C)C(=O)N[C@H](C(=O)O)C(C)C)NC1=O (H-LGVFSDWWIKLV-OH; lactam 6-10)	Active		
			Active	Active	Active	Active	Active	Active	Active	H-LGVFSSWWIKLV-OH		Active	Active
